Read-outs that look alike come from different tables or passages of the source. Starred links: 1 amine or outer side, 2 acyl side, 3 side chain; linkers in the order of their positions; H or OH if unused. Positions of bridges follow the written chain, without caps; N, C: chain ends. Non-standard residues stand in square brackets, D forms with d. Residues, ends and D or L forms follow the SMILES beside them. ξ: configuration not given here. Biphenyl(4,4'-CH2)2 = c1cc(-c2ccc(C[*:2])cc2)ccc1C[*:1]; ξαMeNle(6-ylidene) = CC(CCCC=[*:3])(N[*:1])C(=O)[*:2]; X1 = CC(CCCCCCC=[*:3])(N[*:1])C(=O)[*:2]; Octanediyl(1,8) = C(CCCC[*:2])CCC[*:1]; ξC = NC(CS)C(=O)O
Key:
Format in all cases: cell-based
[1] = tested on: RAMOS, B lymphocyte (Burkitt's Lymphoma); experiment: MTT viability assay, RAMOS
Method: RAMOS, B lymphocyte (Burkitt's Lymphoma), ATCC: CRL-1596 […] During the amplification step and the assays adherent cells were rinsed with DPBS (Dulbecco's Phosphate Buffered Saline, Sigma D1283) three times and afterward treated for 5 minutes with trypsin ([…]) (Gibco-BRL, 15400054) in solution of DPBS at 37° C., and, once detached, transferred in the culturing medium. No-adherent cells were centrifuged and transferred in the culturing medium. Cells were counted in a Neubauer chamber after labelling with Tripan-Blue. […] Cells were seeded at a density of 10000 cells/well in 100 μl of medium in 96 well plates. […] Controls are the untreated cells. Each experiment was performed in triplicate. Cells were incubated with the compounds at the indicated concentrations during 24-72 h in incubator under CO2 atmosphere at 37° C. […] Stock solution of MTT (475989 Calbiochem) was 5 mg/ml in PBS. 1×.10 μl/well of MTT solution were added and the plate was incubated for 3-4 hr. […] Plates were incubated for 16 h at room temperature under orbital shaking. Absorbance at 570 nm was finally measured. […] The dose/response curve was fitted through the sigmoidal equation dose-response (variable slope) and the IC50 values were calculated as follow: Y=Bottom+(Top−Bottom)/(1+10^{[(LogIC50−X)*HillSlope]},

[2] = tested on: A549, epithelial (lung cancer); experiment: MTT viability assay, A549
Method: A549, epithelial (lung cancer), ATCC: CCL-185
(§1) Cell lines A549, MCF-7 and RAMOS were cultured in incubator under CO2 (6%) at 37° C. in DMEM high glucose (Dulbecco's Modified Eagle Solution, Gibco-BRL 31966-21) medium with 10% fetal bovine serum inactivated (FBS) (Gibco-BRL 10106-169). Cell lines HL-60 and MM.1S were cultured in incubator at 37° C. in RPMI-1640 (Sigma R8758) medium with 10% of fetal bovine serum inactivated (FBS) and 2 mM glutamine (Sigma G7513). Cell lines BJ were cultured in incubator under CO2 (6%) at 37° C. in Eagle's Minimum Essential Medium (Sigma, M-2279) with 10% fetal bovine serum inactivated (FBS) (Gibco-BRL 10106-169).
During the amplification step and the assays adherent cells were rinsed with DPBS (Dulbecco's Phosphate Buffered Saline, Sigma D1283) three times and afterward treated for 5 minutes with trypsin ([…]) (Gibco-BRL, 15400054) in solution of DPBS at 37° C., and, once detached, transferred in the culturing medium. No-adherent cells were centrifuged and transferred in the culturing medium. Cells were counted in a Neubauer chamber after labelling with Tripan-Blue. […]
(§2) Cells were incubated with the compounds at the indicated concentrations during 24-72 h in incubator under CO2 atmosphere at 37° C. Then, cell viability was measured by means of MTT (3-(4,5-dimethylthiazol-2-yl)-2,5-diphenyltetrazolium bromide) assay. Stock solution of MTT (475989 Calbiochem) was 5 mg/ml in PBS. 1×.10 μl/well of MTT solution were added and the plate was incubated for 3-4 hr. The medium was discarded and 100 μl of extracting buffer (PBS 1×, 15% SDS, 50% […] N,N-Dimethylformamide, pH 4.7) were added to each well. Plates were incubated for 16 h at room temperature under orbital shaking. Absorbance at 570 nm was finally measured. As negative control (experiment noise) 3 wells were treated with 20 μl/well of a solution of SDS 10% in H2O.
Data analysis was performed calculating the percentage of cell viability normalized vs. the values of negative control, which was considered equal to 100%. The dose/response curve was fitted through the sigmoidal equation dose-response (variable slope) and the IC50 values were calculated as follow: […]

[3] = tested on: MM.1S, B Lymphoblast (multiple myeloma); experiment: MTT viability assay, MM.1S
Method: MM.1S, B Lymphoblast (multiple myeloma), ATCC: CRL-2974
as §1
During the amplification step and the assays adherent cells were rinsed with DPBS (Dulbecco's Phosphate Buffered Saline, Sigma D1283) three times and afterward treated for 5 minutes with trypsin ([…]) (Gibco-BRL, 15400054) in solution of DPBS at 37° C., and, once detached, transferred in the culturing medium. No-adherent cells were centrifuged and transferred in the culturing medium. Cells were counted in a Neubauer chamber after labelling with Tripan-Blue.
Cells were seeded at a density of 10000 cells/well in 100 μl of medium in 96 well plates. After 24 h, the compounds to be tested were added to calculate the dose/response curve at the starting concentration of 100 μM with serial dilutions (1:1). Controls are the untreated cells. Each experiment was performed in triplicate.
as §2
Data analysis was performed calculating the percentage of cell viability normalized vs. the values of negative control, which was considered equal to 100%. The dose/response curve was fitted through the sigmoidal equation dose-response (variable slope) and the IC50 values were calculated as follow:
Y=Bottom+(Top−Bottom)/(1+10^{[(LogIC50−X)*HillSlope]},
All cell lines were cultured in incubator at 37° C. in RPMI-1640 (Sigma R8758) medium with 10% of fetal bovine serum inactivated (FBS) and 2 mM glutamine (Sigma G7513). During the amplification step cells were centrifuged and transferred into the culturing medium. Cells were counted in a Neubauer chamber after labelling with Tripan-Blue.
as §2, with “peptidomimetic compound (S09)” for “compounds”
Cell lines A549 and MBA-MD231 were cultured in incubator under CO2 (6%) at 37° C. in DMEM high glucose (Dulbecco's Modified Eagle Solution, Gibco-BRL 31966-21) medium with 10% fetal bovine serum inactivated (FBS) (Gibco-BRL 10106-169). […]

[4] = Ramos, same protocol as Example 2, Table 6, read-out: Compound (IC50)
[5] = A549, same protocol as Example 2, Table 6, read-out: Compound (IC50)
[6] = MM.1S, same protocol as Example 2, Table 6, read-out: Compound (IC50)

| SMILES | IC50 [2] | IC50 [3] | IC50 [1] | further results |
| --- | --- | --- | --- | --- |
| CCc1ccc(/C=C2/SC(=S)NC2=O)cc1 [10058-F4, reference compound] |  |  |  | IC50 ([1]; Ramos, MTT, incubation 24-72 h, Table 3, read-out: IC50 values): ~57 µM; IC50 ([2]; A549, MTT, incubation 24-72 h, Table 3, read-out: IC50 values): > 100 µM; IC50 ([3]; MM.1S, MTT, incubation 24-72 h, Table 3, read-out: IC50 values): > 100 µM |
| CC[C@H](C)[C@H](NC(=O)[C@H](Cc1ccc(O)cc1)NC(=O)[C@H](C)NC(=O)C1CSCCCCCCCCSCC(NC(=O)[C@H](CCCCN)NC(=O)[C@@H]2CCCN2C(=O)[C@H](C)N)C(=O)N[C@@H](C(C)C)C(=O)N[C@@H]([C@@H](C)CC)C(=O)N[C@@H](CC(C)C)C(=O)N[C@@H](CCCCN)C(=O)N[C@@H](CCCCN)C(=O)N[C@@H](C)C(=O)N1)C(=O)N[C@@H](CC(C)C)C(=O)N[C@@H](CO)C(=O)O (some centres unmarked) [IDP-P1708160] (H-APK[ξC]VILKKA[ξC]AYILS-OH; linker 4-11 via Octanediyl(1,8); N-terminus and C-terminus assumed) | 65 ± 17 µM | 48 µM |  | IC50 ([3]; 24 h): 35 µM; IC50 ([3]; 72 h): 5 µM |
| CC[C@H](C)[C@H](NC(=O)[C@H](Cc1ccc(O)cc1)NC(=O)[C@H](C)NC(=O)[C@@H]1CSCc2ccc(cc2)-c2ccc(cc2)CSC[C@H](NC(=O)[C@H](CCCCN)NC(=O)[C@@H]2CCCN2C(=O)[C@H](C)N)C(=O)N[C@@H](C(C)C)C(=O)N[C@@H]([C@@H](C)CC)C(=O)N[C@@H](CC(C)C)C(=O)N[C@@H](CCCCN)C(=O)N[C@@H](CCCCN)C(=O)N[C@@H](C)C(=O)N1)C(=O)N[C@@H](CC(C)C)C(=O)N[C@@H](CO)C(=O)O [IDP-P1708161] (H-APKCVILKKACAYILS-OH; linker 4-11 via Biphenyl(4,4'-CH2)2; N-terminus and C-terminus assumed) | 42 ± 6 µM | 33 ± 15 µM |  | IC50 ([3]; 24 h): 10 µM; IC50 ([3]; 72 h): 15 µM |
| CC[C@H](C)[C@H](NC(=O)[C@H](Cc1ccc(O)cc1)NC(=O)[C@H](C)NC(=O)[C@@H](NC(=O)[C@H](C)NC(=O)C1(C)CCCC=CCCCCCCC(C)(NC(=O)[C@H](C)N)C(=O)N[C@@H](CCCCN)C(=O)N[C@@H](C(C)C)C(=O)N[C@@H](C(C)C)C(=O)N[C@@H]([C@@H](C)CC)C(=O)N[C@@H](CC(C)C)C(=O)N[C@@H](CCCCN)C(=O)N1)[C@@H](C)O)C(=O)N[C@@H](CC(C)C)C(=O)N[C@@H](CO)C(=O)O (some centres unmarked) [IDP-S19, AXKVVILKXATAYILS] (H-A[X1]KVVILK[ξαMeNle(6-ylidene)]ATAYILS-OH; staple 2-9) |  |  |  | IC50 [1, 4]: > 100 µM; IC50 [2, 5]: > 100 µM; IC50 [3, 6]: > 100 µM |
| CC[C@H](C)[C@H](NC(=O)[C@H](Cc1ccc(O)cc1)NC(=O)C1(C)CCCC=CCCCCCCC(C)(NC(=O)[C@@H](NC(=O)[C@H](CCCCN)NC(=O)[C@@H]2CCCN2C(=O)[C@H](C)N)C(C)C)C(=O)N[C@@H]([C@@H](C)CC)C(=O)N[C@@H](CC(C)C)C(=O)N[C@@H](CCCCN)C(=O)N[C@@H](CCCCN)C(=O)N[C@@H](C)C(=O)N[C@@H]([C@@H](C)O)C(=O)N1)C(=O)N[C@@H](CC(C)C)C(=O)N[C@@H](CO)C(=O)O (some centres unmarked) [IDP-S21, APKVXILKKATXYILS] (H-APKV[X1]ILKKAT[ξαMeNle(6-ylidene)]YILS-OH; staple 5-12) |  |  |  | IC50 [1, 4]: > 100 µM; IC50 [2, 5]: > 100 µM; IC50 [3, 6]: > 100 µM |

Second part, led by results:

| IC50 [2] | IC50 [3] | IC50 [1] | SMILES | further results |
| --- | --- | --- | --- | --- |
| > 100 µM | > 100 µM | > 100 µM | CC[C@H](C)[C@H](NC(=O)[C@@H](NC(=O)[C@@H](NC(=O)[C@H](CCCCN)NC(=O)[C@@H]1CCCN1C(=O)[C@H](C)N)C(C)C)C(C)C)C(=O)NC1(C)CCCCCCC=CCCCC(C)(C(=O)N[C@@H](CC(C)C)C(=O)N[C@@H](CO)C(=O)O)NC(=O)[C@H](Cc2ccc(O)cc2)NC(=O)[C@H](C)NC(=O)[C@H]([C@@H](C)O)NC(=O)[C@H](C)NC(=O)[C@H](CCCCN)NC(=O)[C@H](CCCCN)NC1=O (some centres unmarked) [IDP-S17, APKVVIXKKATAYXLS] (H-APKVVI[X1]KKATAY[ξαMeNle(6-ylidene)]LS-OH; staple 7-14; N-terminus and C-terminus assumed) |  |
| > 100 µM | > 100 µM | > 100 µM | CC[C@H](C)[C@@H]1NC(=O)[C@H](Cc2ccc(O)cc2)NC(=O)[C@H](C)NC(=O)[C@H]([C@@H](C)O)NC(=O)[C@H](C)NC(=O)[C@H](CCCCN)NC(=O)C(C)(NC(=O)[C@H](CC(C)C)NC(=O)[C@@H](NC(=O)[C@@H](NC(=O)[C@@H](NC(=O)[C@H](CCCCN)NC(=O)[C@@H]2CCCN2C(=O)[C@H](C)N)C(C)C)C(C)C)[C@@H](C)CC)CCCCCCC=CCCCC(C)(C(=O)N[C@@H](CO)C(=O)O)NC1=O (some centres unmarked) [IDP-S18, APKVVILXKATAYIXS] (H-APKVVIL[X1]KATAYI[ξαMeNle(6-ylidene)]S-OH; staple 8-15; N-terminus and C-terminus assumed) |  |
| > 100 µM | > 100 µM | > 100 µM | CC[C@H](C)[C@H](NC(=O)C1(C)CCCC=CCCCCCCC(C)(NC(=O)[C@@H](NC(=O)[C@@H](NC(=O)[C@H](CCCCN)NC(=O)[C@@H]2CCCN2C(=O)[C@H](C)N)C(C)C)C(C)C)C(=O)N[C@@H](CC(C)C)C(=O)N[C@@H](CCCCN)C(=O)N[C@@H](CCCCN)C(=O)N[C@@H](C)C(=O)N[C@@H]([C@@H](C)O)C(=O)N[C@@H](C)C(=O)N1)C(=O)N[C@@H](CC(C)C)C(=O)N[C@@H](CO)C(=O)O (some centres unmarked) [IDP-S22, APKVVXLKKATAXILS] (H-APKVV[X1]LKKATA[ξαMeNle(6-ylidene)]ILS-OH; staple 6-13; N-terminus and C-terminus assumed) |  |

Reference: US20200261534A1, “NEW TREATMENTS OF MULTIPLE MYELOMA” (priority 2017, published 2020)
